Data reported in paper PMC4552634, “A New Set of Chemical Starting Points with Plasmodium falciparum Transmission-Blocking Potential for Antimalarial Drug Discovery” (PLoS ONE, 2015).

Tested on: P. falciparum stage V gametocytes
Experiment: microbe, parasite or virus in culture
Parameters: BacTiter-Glo ATP luminescence viability of purified stage V gametocytes in 384-well plates, per cent inhibition versus DMSO
Conditions: Plasmodium falciparum, 48 h, read-out: % Inhibition

Row | SMILES | inhibition at 5 µM [%]
1 | COc1ccc2c(NN=CC=Cc3ccccc3)ccnc2c1 [TCMDC-142144] | -5.92
2 | CC(C)(C)CC(C)(C)c1ccc(O)c(C(=O)Nc2cccc([N+](=O)[O-])c2)c1 [TCMDC-142210] | 8.52
3 | COc1ccc2nc(C)cc(NN=Cc3cc(OC)c(OC)cc3OC)c2c1 [TCMDC-142199] | -26
4 | [O-][s+]1nc(NCCCN(Cc2cccs2)c2ccccn2)c(NCc2ccccc2)n1 (centres unmarked) [TCMDC-142312] | 5.1
5 | CC1=C(C(=O)OCCOCc2ccccc2)C(c2ccccc2C(F)(F)F)C(C(=O)OCCOCc2ccccc2)=C(C)N1 [TCMDC-142290] | 61.1
6 | Cc1cc2nc(-c3cc(Br)ccc3O)c(-c3cc(Br)ccc3O)nc2cc1C [TCMDC-142220] | 24.2
7 | COc1ccc2nccc(NN=Cc3ccccc3)c2c1 [TCMDC-142110] | 31.2
8 | COc1ccc2c(N/N=C/c3cccc([N+](=O)[O-])c3)ccnc2c1 [TCMDC-142138] | 79.5
9 | N[C@@H](Cc1cc(I)c(Oc2ccc(O)c(C(=O)O)c2)c(I)c1)C(=O)O [TCMDC-142341] | 5.53
10 | Cc1cc(NN=Cc2ccccc2Cl)c2cccc(C)c2n1 [TCMDC-142114] | 48.6
11 | CC(C)c1cc(Oc2c(I)cc(CCN=C(N)N)cc2I)ccc1O [TCMDC-142299] | 38.1
12 | CC(C)(C)NCC(O)COc1ccc(Cl)cc1C1=NNC(=O)CC1 (centres unmarked) [TCMDC-142298] | 8.53
13 | N=C(N)c1ccc(/C=C/c2ccc(C(=N)N)cc2O)cc1 [TCMDC-142178] | 1.54
14 | c1ccc(COc2ccnc(NCCCOc3cccc(CN4CCCCC4)c3)c2)cc1 [TCMDC-142314] | 40
15 | CCOc1cc(NCCSCc2nc[nH]c2C)nc2ccccc12 [TCMDC-142294] | 26.1
16 | CCCCN(CCCC)C(=O)CC(O)c1cc2c(Cl)cc(Cl)cc2c2cc(C(F)(F)F)ccc12 (centres unmarked) [TCMDC-142317] | 14.8
17 | COc1ccc(C=Cc2cc(N)c3ccccc3n2)cc1 [TCMDC-142280] | 97.9
18 | Cc1ccccc1Nc1nc(NCc2ccccc2)nc2ccccc12 [TCMDC-142319] | 98.9
19 | Cc1cc(N/N=C/c2ccccc2[N+](=O)[O-])c2cc(C(F)(F)F)ccc2n1 [TCMDC-142157] | 4.83
20 | COc1ccc2ccccc2c1C=NNc1ccnc2ccc(F)cc12 [TCMDC-142237] | -11.1
21 | Cc1cc(NN=Cc2ccc(F)cc2)c2ccc(C(F)(F)F)cc2n1 [TCMDC-142159] | -183
22 | COc1ccc(C=NNc2ccnc3cc(F)c(C)cc23)c2ccccc12 [TCMDC-142235] | -8.9

Row | SMILES | inhibition at 5 µM [%]
23 | Cc1c(N=O)cc(C(C)(C)C)c(O)c1C(=O)Nc1ccc([N+](=O)[O-])cc1Cl [TCMDC-142233] | 32.7
24 | CC(C)(C)CC(C)(C)c1ccc(O)c(C(=O)Nc2ccc([N+](=O)[O-])cc2)c1 [TCMDC-142211] | -13
25 | CN(C)c1ccc(C=Cc2ccc3ccccc3n2)c(Cl)c1 [TCMDC-142212] | 36.3
26 | COc1cccc2c(NN=Cc3ccccc3F)ccnc12 [TCMDC-142181] | -26
27 | Cc1cc(NN=Cc2ccccc2)c2cc(F)ccc2n1 [TCMDC-142175] | -16.9
28 | CC1(C)N=C(N)N=C(N)N1c1ccc2ccccc2c1 [TCMDC-142179] | -17.5
29 | Fc1ccc2nccc(NN=Cc3ccccc3Cl)c2c1 [TCMDC-142122] | -2.19
30 | Cc1[nH]cnc1CSCCNC(N)=NCCCCCCCCN=C(N)NCCSCc1nc[nH]c1C [TCMDC-142301] | -5.19
31 | COc1cc2c(cc1OC)C(c1ccc(Br)cc1)CN(C)CC2 (centres unmarked) [TCMDC-142272] | 20.3
32 | CC(C)c1cc(Oc2c(I)cc(CCCc3ncc[nH]3)cc2I)ccc1O [TCMDC-142307] | -127
33 | COc1cc(C=NNc2cc(C)nc3c(OC)cccc23)cc(OC)c1OC [TCMDC-142200] | 84.3
34 | Nc1c2c(nc3ccc(Oc4ccc(Cl)cc4)cc13)CCCC2 [TCMDC-142282] | 92
35 | Cc1cc(Br)cnc1CCCCN=C1NC(=O)CN1C [TCMDC-142309] | 5.26
36 | O=c1c(NCCCN(Cc2ccc(F)cc2)c2ccccn2)c(NCc2ccncc2)c1=O [TCMDC-142310] | 91.6
37 | Cc1cc(N/N=C/c2ccc([N+](=O)[O-])cc2)c2ccc(F)cc2n1 [TCMDC-142170] | 105
38 | COc1ccc(C=NNc2ccnc3ccccc23)c2ccccc12 [TCMDC-142215] | -96.9
39 | CCOc1ccc2c(NN=Cc3cccc(OC)c3OC)cc(C)nc2c1 [TCMDC-142205] | 40.8
40 | O=[N+]([O-])c1cccc(/C=N/Nc2ccnc3ccc(C(F)(F)F)cc23)c1 [TCMDC-142150] | 7.31
41 | Cc1cc(NN=Cc2ccc(F)cc2)c2cc(C(F)(F)F)ccc2n1 [TCMDC-142158] | -75.7
42 | CCCCCCCCNCC(O)c1ccc(Cl)c(Cl)c1 (centres unmarked) [TCMDC-142225] | 17.7
43 | CCOc1ccc2c(NN=Cc3cc(OC)c(OC)cc3OC)cc(C)nc2c1 [TCMDC-142207] | 101
44 | Cc1ccccc1Nc1nc(Nc2ccccc2)c2ccccc2n1 [TCMDC-142324] | 28.6
